Experimental data from ChEMBL document CHEMBL3585319 (J Med Chem, 2015).
pKi: −log10 of the molar value. Activity calls are given as the source filed them. The rule behind the calls is not given here.

Tests used:
[1] = target: T1, Sodium-dependent serotonin transporter (Homo sapiens, UniProt P31645); assay: Inhibition of wild type human SERT expressed in HEK293 GripTite cells pre-incubated for 5 mins followed by [3H]5-HT addition by [3H]5-HT uptake assay; type: cell-based
Target sequence in this assay (P31645 whole entry): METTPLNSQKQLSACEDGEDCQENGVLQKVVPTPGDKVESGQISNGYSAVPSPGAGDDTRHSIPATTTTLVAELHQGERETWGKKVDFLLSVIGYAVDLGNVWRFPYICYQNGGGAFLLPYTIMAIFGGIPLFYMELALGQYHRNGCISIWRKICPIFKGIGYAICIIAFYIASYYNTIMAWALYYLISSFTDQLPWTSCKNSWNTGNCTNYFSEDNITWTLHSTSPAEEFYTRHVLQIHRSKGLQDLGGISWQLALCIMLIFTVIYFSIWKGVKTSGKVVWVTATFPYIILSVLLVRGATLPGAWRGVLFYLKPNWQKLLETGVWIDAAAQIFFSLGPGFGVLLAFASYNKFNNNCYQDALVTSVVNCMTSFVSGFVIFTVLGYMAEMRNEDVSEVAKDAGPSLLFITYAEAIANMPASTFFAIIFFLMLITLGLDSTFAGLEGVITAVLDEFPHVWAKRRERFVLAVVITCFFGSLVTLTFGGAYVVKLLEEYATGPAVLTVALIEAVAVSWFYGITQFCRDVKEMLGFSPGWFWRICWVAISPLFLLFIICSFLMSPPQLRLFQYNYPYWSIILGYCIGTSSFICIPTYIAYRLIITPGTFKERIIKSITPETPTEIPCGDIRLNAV

[2] = target: Sodium-dependent serotonin transporter (Homo sapiens, UniProt P31645, S438T); type: cell-based, HEK293
Chain of Sodium-dependent serotonin transporter (Homo sapiens, UniProt P31645, S438T) (P31645 whole entry S438T): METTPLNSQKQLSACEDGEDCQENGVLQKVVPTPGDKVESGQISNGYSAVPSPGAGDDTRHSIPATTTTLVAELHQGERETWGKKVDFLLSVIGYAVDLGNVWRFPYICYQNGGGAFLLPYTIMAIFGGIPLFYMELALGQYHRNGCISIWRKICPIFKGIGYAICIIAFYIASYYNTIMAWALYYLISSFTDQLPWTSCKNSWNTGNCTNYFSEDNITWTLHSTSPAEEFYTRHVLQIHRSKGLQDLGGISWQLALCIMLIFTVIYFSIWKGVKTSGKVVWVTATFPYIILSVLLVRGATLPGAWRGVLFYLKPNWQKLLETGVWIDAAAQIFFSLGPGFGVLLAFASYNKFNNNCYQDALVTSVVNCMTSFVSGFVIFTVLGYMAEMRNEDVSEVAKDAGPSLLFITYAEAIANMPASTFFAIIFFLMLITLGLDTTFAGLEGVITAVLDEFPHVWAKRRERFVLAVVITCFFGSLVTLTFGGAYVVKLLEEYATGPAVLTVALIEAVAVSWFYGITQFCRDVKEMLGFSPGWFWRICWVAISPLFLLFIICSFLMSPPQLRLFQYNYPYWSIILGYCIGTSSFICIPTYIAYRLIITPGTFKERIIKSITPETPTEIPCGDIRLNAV

[3] = target: T1, Sodium-dependent serotonin transporter; assay: (§1) Irreversible photoaffinity labeling of hemagglutinin-tagged human SERT expressed in LLCPK1 cells at 10 nM incubated for 1.5 hrs at 4 degC followed by irradiation with shortwave ultraviolet light for 5 mins by SDS-PAGE and autoradiography method; type: cell-based; settings: LLC-PK1, tested as the 125I-labelled form
Target sequence in this assay (P31645 whole entry, looked up): as the sequence (P31645 whole entry) above

[4] = target: T1, Sodium-dependent serotonin transporter; assay: as §1, with “cells assessed as 10 uM (s)-citalopram-induced blocking of compound binding” for “cells”; type: cell-based; settings: LLC-PK1, tested as the 125I-labelled form
Target sequence in this assay (P31645 whole entry, looked up): as the sequence (P31645 whole entry) above

Homo sapiens = species: Homo sapiens; assay: Resistance index, ratio of Ki for human SERT S438T mutant expressed in HEK293 GripTite cells to Ki for wild type human SERT expressed in HEK293 GripTite cells; type: cell-based

SMILES | pKi [1] | pKi [2] | Activity [3] | inhibition [4] [%] | Ratio Ki (Homo sapiens)
CN(C)CCC[C@@]1(c2ccc(F)cc2)OCc2cc(CNC(=O)CCc3ccc(N=[N+]=[N-])c(I)c3)ccc21 | 7.42 | 5.01 | Active | > 99 | 
CN(CCC[C@@]1(c2ccc(F)cc2)OCc2cc(C#N)ccc21)CCc1ccc(N=[N+]=[N-])c(I)c1 | 6.64 | 5.42 | Active | 30 | 17
COC(=O)[C@@H]1C2CCC(C[C@@H]1c1ccc(Cl)cc1)N2CCCCc1ccc(N=[N+]=[N-])c(I)c1 (some centres undefined) |  |  | Active |  | 
CN(C)CCC[C@@]1(c2ccc(F)cc2)OCc2cc(CNC(=O)c3ccc(N=[N+]=[N-])c(I)c3)ccc21 | 7.62 | 5.24 | Active | > 99 | 
